This note sets out measurements from patent US10703746B2, “Mutant IDH1 inhibitors useful for treating cancer” (THE UNITED STATES OF AMERICA, AS REPRESENTED BY THE …, priority 2014, dated 2020).

Assay [1] concerns the target IDH1 R132C (Homo sapiens, UniProt O75874, R132C). Put plainly: IDH1 R132C enzymatic assay (NADPH depletion coupled to diaphorase/resazurin). Conditions: enzymatic inhibition, IDH1 R132C. In kind it is biochemical. The procedure, abridged:
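NADPH depletion, read via diaphorase/resazurin coupling, after adding substrate at 0.6 mM α-KG and 0.012 mM NADPH. Beforehand, 0.00032 mg/mL enzyme sat with compound 30 min at room temperature in pH 6.5 potassium phosphate buffer with MgCl2, glycerol and BSA.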
Background: Alamar Blue is a resazurin reagent that responds to reducing activity.

The target of assay [2] is IDH1 R132H (Homo sapiens, UniProt O75874, R132H). Put plainly: IDH1 R132H enzymatic assay (NADPH depletion coupled to diaphorase/resazurin). Conditions: enzymatic inhibition, IDH1 R132H. In kind it is biochemical.
Chain of IDH1 R132H (O75874 whole entry R132H): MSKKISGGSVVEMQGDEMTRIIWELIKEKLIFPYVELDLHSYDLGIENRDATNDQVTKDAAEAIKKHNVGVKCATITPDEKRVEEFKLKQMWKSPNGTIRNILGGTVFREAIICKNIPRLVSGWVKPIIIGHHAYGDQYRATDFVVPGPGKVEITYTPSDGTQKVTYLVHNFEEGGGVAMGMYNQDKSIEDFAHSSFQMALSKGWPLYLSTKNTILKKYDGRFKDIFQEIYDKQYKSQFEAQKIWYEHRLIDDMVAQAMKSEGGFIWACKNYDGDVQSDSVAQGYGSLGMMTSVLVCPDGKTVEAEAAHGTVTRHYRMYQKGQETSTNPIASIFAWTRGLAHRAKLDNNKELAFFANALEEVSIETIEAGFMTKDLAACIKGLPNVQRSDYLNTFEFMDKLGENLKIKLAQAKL

Chain of IDH1 R132C (O75874 whole entry R132C): as the sequence (O75874 whole entry R132H) above, with H132C counted along it

In general, IC50 refers to the midpoint of a concentration-inhibition curve. A higher IC50 goes with weaker potency. Turning to `Cc1ccc(CN2CCN(C)CC2)cc1-n1c2c(cc(-c3nc(-c4ccc(Cl)cc4)cs3)c1=O)C(=O)CC(C)(C)C2` [Compound 460], the IC50 in assay [1] and in assay [2] was 5000 to 20000 nM in each case.
For `COc1cccc(OC)c1-n1c(CC(C)C)c(C(=O)N2CCNCC2)cc(-c2nc(-c3ccc(Cl)cc3)cs2)c1=O` [Compound 461], the half-inhibitory concentration (IC50) in assay [1] was 300 to 1000 nM; in assay [2], less than 300 nM.
As to `Cc1ccccc1Oc1nc(C)c(C(=O)N2CCNCC2)cc1-c1nc(-c2ccc(Cl)cc2)cs1` [Compound 462], the IC50 in assay [1] and in assay [2] was 5000 to 20000 nM in each case.
Consider `CCOc1ccc(Cl)cc1-n1c(C=C(C)C)c(C(=O)N2CCNCC2)cc(-c2nc(-c3ccc(Cl)cc3)cs2)c1=O` [Compound 463], for which the IC50 in assay [1] and in assay [2] was less than 300 nM throughout.
In the case of `CCc1cccc(CC)c1-n1c(CC(C)C)c(C(=O)N2CCNCC2)cc(-c2nc(-c3ccc(Cl)cc3)c(C(=O)N(C)C)s2)c1=O` [Compound 464], the IC50 lay within 1000 to 5000 nM in assay [1] and 300 to 1000 nM in assay [2].
The matching figures for `CCc1cccc(CC)c1-n1c(CC(C)C)c(C(=O)N2CCNC3(CCC3)C2)cc(-c2nc(-c3ccc(Cl)cc3)cs2)c1=O` [Compound 465]: less than 300 nM and less than 300 nM.
`CCc1ncc(OC)cc1-n1c(C=C(C)C)c(C(=O)N2CCNCC2)cc(-c2nc(-c3ccc(C(F)F)cn3)cs2)c1=O` [Compound 466]: the IC50 in assay [1] is 5000 to 20000 nM; in assay [2], 1000 to 5000 nM.
`COc1cccc(OC)c1-n1c(C=C(C)C)c(C(=O)N2CCNCC2)cc(-c2nc(-c3ccc(Cl)cc3)cs2)c1=O` [Compound 467]: the IC50 in assay [1] and in assay [2] was less than 300 nM throughout.
On to `Cc1cccc(CN2CCN(C)CC2)c1-n1c2c(cc(-c3nc(-c4ccc(Cl)cc4)cs3)c1=O)C(=O)CCC2` [Compound 468], for which the IC50 in assay [1] and in assay [2] was 5000 to 20000 nM each time.
For `CCOc1ncc(Cl)cc1-n1c(C=C(C)C)c(C(=O)N2CCNCC2)cc(-c2nc(-c3ccc(C(F)F)cn3)cs2)c1=O` [Compound 469], the IC50 was in the range of 1000 to 5000 nM in assay [1] and 300 to 1000 nM in assay [2].
For `Cc1ccccc1-n1c(C)c(C(=O)N2CCNCC2)cc(-c2nc(-c3ccc(Cl)cc3)cs2)c1=O` [Compound 470] the same measures were 5000 to 20000 nM and 1000 to 5000 nM.
The matching figures for `Cc1conc1-n1c2c(cc(-c3nc(-c4ccc(Cl)cc4)cs3)c1=O)C(=O)CC(C)(C)C2` [Compound 472]: 1000 to 5000 nM and 1000 to 5000 nM.
As for `CCCc1c(C(=O)N2CCNCC2)cc(-c2nc(-c3ccc(Cl)cc3)cs2)c(=O)n1-c1c(CC)cccc1CC` [Compound 473], the concentration for half-maximal inhibition (IC50) in assay [1] and in assay [2] was less than 300 nM throughout.
Take `CCOc1ncc(F)cc1-n1c(C=C(C)C)c(C(=O)N2CCNCC2)cc(-c2nc(-c3ccc(C(F)F)cn3)cs2)c1=O` [Compound 474]: the figures for the IC50 in assay [1] and in assay [2] were 1000 to 5000 nM and 300 to 1000 nM, respectively.
The matching figures for `CCc1cccc(CC)c1-n1c2c(cc(-c3nc(-c4ccc(Cl)cc4)cs3)c1=O)C(=O)OC(C)(C)C2` [Compound 475]: 300 to 1000 nM and 300 to 1000 nM.
On to `CCOc1ccc(F)cc1-n1c(C=C(C)C)c(C(=O)N2CCNCC2)cc(-c2nc(-c3ccc(C(F)(F)F)nc3)cs2)c1=O` [Compound 477], for which the concentration for half-maximal inhibition (IC50) was 300 to 1000 nM in assay [1] and less than 300 nM in assay [2].
For `CCc1cccc(CC)c1-n1c(C=C(C)C)c(C(=O)N2CCNC(CO)C2)cc(-c2nc(-c3ccc(Cl)cc3)cs2)c1=O` (stereo not shown) [Compound 478] the same measures were less than 300 nM and less than 300 nM.
For `CCc1cccc(CC)c1-n1c(C=C(C)C)c(C(=O)N2CCN(c3ccccc3C(F)(F)F)CC2)cc(-c2nc(-c3ccc(Cl)cc3)cs2)c1=O` [Compound 480], the IC50 in assay [1] and in assay [2] was 5000 to 20000 nM each time.
With `O=C1CCCc2c1cc(-c1nc(-c3ccc(Cl)cc3)cs1)c(=O)n2-c1cccnc1` [Compound 481], the half-inhibitory concentration (IC50) in assay [1] and in assay [2] was greater than 20000 nM each time.
`CCc1cccc(CC)c1-n1c(C=C(C)C)c(C(=O)N2CCN[C@H](C)C2)cc(-c2nc(-c3ccc(C(F)(F)F)cc3)cs2)c1=O` [Compound 483]: the IC50 in assay [1] and in assay [2] was less than 300 nM throughout.
Turning to `Cc1c(CO)cccc1-n1c2c(cc(-c3nc(-c4ccc(Cl)nc4)cs3)c1=O)C(=O)CCC2` [Compound 486], the IC50 in assay [1] and in assay [2] was 5000 to 20000 nM in each case.
Take `CCc1cccc(CC)c1-n1c(CC(C)C)c(C(=O)N2CCNCC2)cc(-c2ccn(Cc3ccc(Cl)cc3)n2)c1=O` [Compound 487]: the half-inhibitory concentration (IC50) in assay [1] and in assay [2] was greater than 20000 nM in each case.
Turning to `CCOc1ncc(F)cc1-n1c(C=C(C)C)c(C(=O)N2CCNCC2)cc(-c2nc(-c3ccc(Cl)cc3)cs2)c1=O` [Compound 488], the IC50 in assay [1] and in assay [2] was less than 300 nM each time.
On to `CCc1cccc(CC)c1-n1c(C=C(C)C)c(C(=O)N2CCNC(C(C)C)C2)cc(-c2nc(-c3ccc(Cl)cc3)cs2)c1=O` (stereo not shown) [Compound 489], for which the IC50 in assay [1] and in assay [2] was less than 300 nM each time.
Take `COc1ncc(Cl)cc1-n1c(C=C(C)C)c(C(=O)N2CCNCC2)cc(-c2nc(-c3ccc(Cl)cc3)cs2)c1=O` [Compound 490]: the IC50 in assay [1] and in assay [2] was less than 300 nM in each case.
Take `CCc1ccc(Cl)cc1-n1c(C=C(C)C)c(C(=O)N2CCNCC2)cc(-c2nc(-c3ccc(C(F)(F)F)nc3)cs2)c1=O` [Compound 491]: the IC50 in assay [1] and in assay [2] was less than 300 nM in each case.
As for `CCc1cccc(CC)c1-n1c(CC2CC2)c(C(=O)N2CCNCC2)cc(-c2nc(-c3ccc(Cl)nc3)cs2)c1=O` [Compound 492], the half-inhibitory concentration (IC50) in assay [1] and in assay [2] was less than 300 nM throughout.
`CN1CCN(c2ccc(-n3c4c(cc(-c5nc(-c6ccc(Cl)cc6)cs5)c3=O)C(=O)CC(C)(C)C4)c(C(F)(F)F)c2)CC1` [Compound 493]: the 50% inhibitory concentration (IC50) in assay [1] and in assay [2] was 5000 to 20000 nM each time.
With `CC(C)=Cc1c(C(=O)N2CCNCC2)cc(-c2nc(-c3ccc(Cl)cc3)cs2)c(=O)n1-c1c(F)cccc1OC(C)C` [Compound 494], the IC50 in assay [1] and in assay [2] was less than 300 nM each time.
For `CC(C)=Cc1c(C(=O)N2CCNCC2)cc(-c2nc(-c3ccc(Cl)cc3)cs2)c(=O)n1-c1cc(C)ccc1OC(C)C` [Compound 496], the half-inhibitory concentration (IC50) in assay [1] and in assay [2] was less than 300 nM in each case.
Turning to `CN1CCN(Cc2ccc(-n3c4c(cc(-c5nc(-c6ccc(Cl)cc6)cs5)c3=O)C(=O)CC(C)(C)C4)cc2)CC1` [Compound 498], the half-maximal inhibitory concentration (IC50) in assay [1] was 5000 to 20000 nM; in assay [2] it was 1000 to 5000 nM.
For `CCc1cccc(CC)c1-n1c(C=C(C)C)c(C(=O)N2CCNC(=O)C2c2ccccc2)cc(-c2nc(-c3ccc(Cl)cc3)cs2)c1=O` (stereo not shown) [Compound 499] the same measures were less than 300 nM and 300 to 1000 nM.
For `COc1ccc(Cl)c(-n2c(C=C(C)C)c(C(=O)N3CCNCC3)cc(-c3nc(-c4ccc(Cl)cc4)cs3)c2=O)c1` [Compound 500] the same measures were less than 300 nM and less than 300 nM.
For `CCc1cccc(CC)c1-n1c(CC(C)C)c(C(=O)N2CCNCC2)cc(-c2nc(-c3ccc(Cl)cc3)c(C#N)s2)c1=O` [Compound 501] the same measures were 300 to 1000 nM and 300 to 1000 nM.
On to `CCc1cccc(CC)c1-n1c(C2CC2)c(C(=O)N2CCNCC2)cc(-c2nc(-c3ccc(Cl)cc3)cs2)c1=O` [Compound 502], for which the IC50 in assay [1] and in assay [2] was less than 300 nM in each case.
